According to ChEMBL document CHEMBL1201862, “PubChem BioAssay data set” (2004):
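96-well plates; 48 h exposure; 5 concentrations. Endpoints by linear interpolation between flanking doses. Not reached: highest tested concentration assigned. The concentration for 50% growth inhibition is given as GI50.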 Active and inactive are the calls of the source. Rule as the data show it: active = GI50 up to about 1.1 µM and inactive = higher.

Tests used:
Assay in all cases: NCI tumour cell line growth inhibition, 48 h
786-0 = system: 786-0
A498 = system: A498
ACHN = system: ACHN
BT-549 = system: BT-549
CAKI-1 = system: CAKI-1
DU-145 = system: DU-145
HCC 2998 = system: HCC 2998
Hs-578T = system: Hs-578T
IGROV-1 = system: IGROV-1
K562 = system: K562
NCI-H522 = system: NCI-H522
SK-MEL-2 = system: SK-MEL-2
SNB-19 = system: SNB-19
SW-620 = system: SW-620
TK-10 = system: TK-10
UACC-257 = system: UACC-257
UACC-62 = system: UACC-62
COLO 205 = system: COLO 205
MCF7 = system: MCF7

Measured: GI50

Cc1cc(O)nc(/N=C(\N)Nc2ccc(Cl)cc2)n1
inactive: 786-0 > 100 µM | A498 > 100 µM | ACHN > 100 µM | BT-549 > 100 µM | CAKI-1 > 100 µM | DU-145 > 100 µM | HCC 2998 > 100 µM | Hs-578T > 100 µM | IGROV-1 > 100 µM | K562 > 100 µM | NCI-H522 > 100 µM | SK-MEL-2 > 100 µM | SNB-19 > 100 µM | SW-620 > 100 µM | TK-10 > 100 µM | UACC-257 > 100 µM | UACC-62 > 100 µM

Cn1c(=O)sc2cc(C(=S)N3CCN(c4ccccc4)CC3)ccc21
inactive: 786-0 44 µM | A498 > 100 µM | ACHN 70.3 µM | BT-549 60.7 µM | CAKI-1 > 100 µM | COLO 205 > 100 µM | DU-145 > 100 µM | Hs-578T 55.8 µM | IGROV-1 46.5 µM | K562 > 100 µM | MCF7 64.3 µM | SK-MEL-2 56 µM | SNB-19 45.3 µM | SW-620 > 100 µM | TK-10 71.9 µM | UACC-257 > 100 µM | UACC-62 31.8 µM

COc1ccc(N[S+]([O-])c2c(C)cc(C)cc2C)cc1 (configuration not stated)
inactive: 786-0 89.5 µM | ACHN 43.7 µM | BT-549 1.79 µM | COLO 205 > 100 µM | DU-145 93.3 µM | HCC 2998 19.5 µM | Hs-578T 34.4 µM | IGROV-1 22.5 µM | K562 42.1 µM | MCF7 56 µM | NCI-H522 19.1 µM | SK-MEL-2 > 100 µM | SNB-19 > 100 µM | SW-620 48.2 µM | TK-10 > 100 µM | UACC-257 70.1 µM | UACC-62 33.7 µM

NC(=O)CNC(=O)[C@@H]1C[C@@H](OCCC(=O)O)CN1C(=O)OCc1ccccc1
inactive: 786-0 > 100 µM | A498 > 100 µM | ACHN > 100 µM | BT-549 > 100 µM | COLO 205 > 100 µM | DU-145 > 100 µM | Hs-578T > 100 µM | IGROV-1 > 100 µM | K562 > 100 µM | MCF7 > 100 µM | NCI-H522 > 100 µM | SK-MEL-2 > 100 µM | SNB-19 > 100 µM | SW-620 > 100 µM | TK-10 > 100 µM | UACC-257 > 100 µM | UACC-62 > 100 µM

CNc1cc(OCc2ccccc2)c(OC)cc1C(=O)N1CCC[C@H]1CO
inactive: 786-0 > 100 µM | A498 > 100 µM | ACHN > 100 µM | BT-549 > 100 µM | CAKI-1 > 100 µM | COLO 205 > 100 µM | DU-145 > 100 µM | Hs-578T > 100 µM | IGROV-1 > 100 µM | MCF7 > 100 µM | NCI-H522 73.8 µM | SK-MEL-2 > 100 µM | SNB-19 > 100 µM | SW-620 > 100 µM | TK-10 > 100 µM | UACC-257 > 100 µM | UACC-62 > 100 µM

O=C(NNC(=O)c1ccco1)c1ccco1
inactive: 786-0 > 100 µM | A498 > 100 µM | BT-549 > 100 µM | CAKI-1 > 100 µM | COLO 205 > 100 µM | DU-145 > 100 µM | Hs-578T > 100 µM | IGROV-1 > 100 µM | K562 > 100 µM | MCF7 > 100 µM | NCI-H522 15 µM | SK-MEL-2 > 100 µM | SNB-19 > 100 µM | SW-620 > 100 µM | TK-10 > 100 µM | UACC-257 > 100 µM | UACC-62 > 100 µM

CC(=O)CCCCC(=O)Nc1ccc(CC(NC(=O)OC(C)(C)C)C(=O)NCC(=O)OCc2ccccc2)cc1 (configuration not stated)
inactive: 786-0 21.7 µM | A498 23.1 µM | ACHN 30.5 µM | BT-549 14.1 µM | CAKI-1 15.7 µM | COLO 205 18.5 µM | DU-145 32.7 µM | HCC 2998 16.4 µM | Hs-578T 16.1 µM | IGROV-1 33.3 µM | K562 17.3 µM | MCF7 24.7 µM | NCI-H522 23.6 µM | SNB-19 21.9 µM | SW-620 16.6 µM | TK-10 63.1 µM | UACC-62 > 10 µM

C=CCOCn1cc(C)c(=O)[nH]c1=O
inactive: 786-0 > 100 µM | A498 > 100 µM | ACHN > 100 µM | BT-549 > 100 µM | CAKI-1 > 100 µM | COLO 205 > 100 µM | DU-145 > 100 µM | HCC 2998 > 100 µM | Hs-578T > 100 µM | IGROV-1 > 100 µM | K562 > 100 µM | MCF7 > 100 µM | NCI-H522 29.6 µM | SNB-19 > 100 µM | SW-620 > 100 µM | TK-10 > 100 µM | UACC-257 > 100 µM | UACC-62 > 100 µM
